Converted amounts (≈) assume the structure as drawn.
Experiments:
[1] = test system: Shigella flexneri clinical strain; assay: MIC, Shigella flexneri; format: cell-based
Description: (§1) The inoculum used for all the experiments is derived from a single seed lot that is maintained as glycerol stocks at −80 °C and are sub cultured on LB plate for isolated colonies. Single colony of each strain is grown in M9 medium. All test compound stocks and dilutions are prepared in DMSO. Serial two-fold dilutions of compounds are prepared separately, with the concentrations ranging from 2 mg/mL to 0.015 mg/mL. To 150 µl (3–7 × 10^5 CFU/ml) of bacterial culture in 96 well microtitre plates, 3 μL compound from each of the dilutions is added to respective wells to obtain final concentrations ranging from 40 µg/mL to 0.3 µg/mL of the test compounds. Media control, culture control and appropriate reference drug controls are included. […] Growth is monitored by checking absorbance at 600 nm (A600). […] The samples from MIC and above concentrations are plated for MBC (Minimum Bactericidal Concentration). The samples are diluted 1:10 and plated on LB agar plates. […] The killing kinetics is determined by enumerating survivors at various time points following compound exposure. E. coli cells (~10^7 CFU/ml; A600 of 0.1) are treated with various concentrations (40 µg/mL to 0.3 µg/mL) of compounds in a 96-well microtitre plate. […] Data is expressed as the log10 CFU for each drug treatment.

[2] = test system: Shigella sonnei clinical strain; assay: MIC, Shigella sonnei; format: cell-based
Description: as §1

E. coli BW25113 = assay: Neutropenic thigh infection, E. coli BW25113; format: in vivo, BALB/c mice
[3] = test system: E. coli acrF knockout strain; assay: MIC, efflux pump knockout acrF; format: cell-based; details: Escherichia coli, read-out: MIC acrF
Description: as §1

[4] = test system: E. coli acrZ knockout strain; assay: MIC, efflux pump knockout acrZ; format: cell-based; details: Escherichia coli, read-out: MIC acrZ
Description: as §1

WT E. coli = assay: MIC on WT E. coli in the presence of PAβN; format: cell-based; details: Escherichia coli
Description: as §1

[5] = test system: E. coli macB knockout strain; assay: MIC, efflux pump knockout macB; format: cell-based; details: Escherichia coli, read-out: MIC macB
Description: as §1

[6] = test system: E. coli bcr knockout strain; assay: MIC, efflux pump knockout bcr; format: cell-based; details: Escherichia coli, read-out: MIC bcr
Description: as §1

[7] = test system: E. coli acrD knockout strain; assay: MIC, efflux pump knockout acrD; format: cell-based; details: Escherichia coli, read-out: MIC acrD
Description: as §1

[8] = test system: E. coli mdfA knockout strain; assay: MIC, efflux pump knockout mdfA; format: cell-based; details: Escherichia coli, read-out: MIC mdfA
Description: as §1

[9] = test system: E. coli yciM knockout strain; assay: MIC, efflux pump knockout yciM; format: cell-based; details: Escherichia coli, read-out: MIC yciM
Description: as §1

[10] = test system: E. coli mdtL knockout strain; assay: MIC, efflux pump knockout mdtL; format: cell-based; details: Escherichia coli, read-out: MIC mdtL
Description: as §1

SMILES: O=C(Nc1nc(-c2ccc(F)cc2F)cs1)c1ccc([N+](=O)[O-])s1 [compound 12, N-(4-(2,4-difluorophenyl)thiazol-2-yl)-5-nitrothiophene-2-carboxamide]
- MIC Shigella flexneri [1]: 10 µg/mL (≈ 27.2 µM)
- MIC Shigella sonnei [2]: 5 µg/mL (≈ 13.6 µM)

SMILES: O=C(Nc1nc(-c2ccc(F)cc2)cs1)c1ccc([N+](=O)[O-])s1 [compound 15, N-(4-(4-Fluorophenyl)thiazol-2-yl)-5-nitrothiophene-2-carboxamide]
- Log10CFU Mean Diff. vs. Untreated Controls (E. coli BW25113; Study TI-2014-008, BW25113, 30mg/kg per oral): 0.9167 Log10CFU
- Log10CFU Mean Diff. vs. Untreated Controls (E. coli BW25113; Study TI-2014-008, BW25113, 100mg/kg per oral): 1.643 Log10CFU
- efficacy in thigh infection model (in words) (E. coli BW25113; WT E. coli BW25113): significantly bactericidal

SMILES: Cc1sc(NC(=O)c2ccc([N+](=O)[O-])s2)nc1-c1ccccc1 [compound 7, N-(5-Methyl-4-phenylthiazol-2-yl)-5-nitrothiophene-2-carboxamide]
- MIC [3]: > 40 µg/mL
- MIC [4]: > 40 µg/mL
- MIC (WT E. coli): < 0.3 µg/mL
- MIC [5]: > 40 µg/mL
- MIC [6]: > 40 µg/mL
- MIC [7]: > 40 µg/mL
- MIC [8]: > 40 µg/mL
- MIC [9]: > 40 µg/mL
- MIC [10]: > 40 µg/mL
